PMC7796460, “Relation of Metal-Binding Property and Selective Toxicity of 8-Hydroxyquinoline Derived Mannich Bases Targeting Multidrug Resistant Cancer Cells” (Cancers, 2021)
Read-outs that look alike come from different tables or passages of the source.

How the values were obtained:
MES-SA/Dx5 cells [1] = assay: MTT viability assay, MES-SA/Dx5; format: cell-based, human; settings: for SR: Table S1, IC50 Pgp negative divided by Pgp positive cells; for SR_TQ: Table S1, presence of 1 µM TQ
Excerpt: (§1) MDCK II canine kidney cells, A431 epidermoid carcinoma cells, the human uterine sarcoma cell lines MES-SA and the doxorubicin selected MES-SA-Dx5 were obtained from ATCC (MDCK II: No. CRL-2936™, A431: No. CRL-1555™, MES-SA: No. CRL-1976™, MES-SA/Dx5: No. CRL-1977™). ABCB1 was expressed in A431 and MES-SA cells using lentiviral transduction. The human cervix carcinoma cell line KB-3-1 and the vinblastine selected KB-v1were kind gifts from Dr. Michael M. Gottesman, National Institutes of Health. The phenotype of the resistant cells was verified using cytotoxicity assays. MDCK-B1 and MDCK-MM were established by the Sleeping Beauty transposon-based gene delivery system. OVCAR-8 and NCI-ADRres cells (obtained from the Division of Cancer Treatment and Diagnosis (DCTD) Tumor Repository (National Cancer Institute, Frederick, MD, USA)) were cultivated in RPMI-1640 (Sigma Aldrich, Budapest, Hungary), and other cell lines were cultivated in Dulbecco’s Modified Eagle Medium (DMEM, Sigma Aldrich, Budapest, Hungary), supplemented with 10% fetal bovine serum, 5 mM glutamine, and 50 unit/mL penicillin and streptomycin (Life Technologies, Carlsbad, CA, USA). All cell lines were cultivated at 37 °C, 5% CO2.
(§2) MTT viability assays were performed as described earlier with minor modifications. Briefly, cells were seeded into 96-well tissue culture plates (Sarstedt, Newton, NC, USA/Orange, Braine-l’Alleud, Belgium) at a density of 5000 cells/well and allowed to attach overnight. Test compounds were added to achieve the required final concentration in a final volume of 100 µL per well. After an incubation period of 72 h, the supernatant was removed and fresh medium containing the MTT reagent (0.083 mg/mL) was added. Incubation with MTT at 37 °C was terminated after 1 h by removing the supernatant and lysing the cells with 100 µL DMSO per well. Viability of the cells was measured spectrophotometrically based on the absorbance values at 540 nm using either a Perkin Elmer Victor X3 or an EnSpire microplate reader. Data were background corrected by subtraction of the signal obtained from unstained cell lysates and normalized to untreated cells. Curves were fitted by Prism software (GraphPad Software Inc., San Diego, CA, USA) using the sigmoidal dose-response model (comparing variable and fixed slopes). […] Significance was calculated using unpaired t-tests; results are given as *: p ≤ 0.05, **: p ≤ 0.01, ***: p ≤ 0.001, ****: p ≤ 0.0001.

MES-SA cells [2] = assay: MTT viability assay, MES-SA; format: cell-based, human
Excerpt: as §1, §2

MES-SA cells [3] = assay: ROS determination with DCFDA, MES-SA; format: cell-based, human; settings: 2 h
Method: (§3) Measurements were performed as described earlier. Briefly, cells were harvested, washed with PBS, and incubated with 10 µM DCFDA in a water bath shaker at 37 °C for 30 min in a density of 3 × 10^6 cells/mL. After washing with PBS, cells were seeded to 96-well plates in PBS in a density of 2 × 10^4 cells/well. Following the measurement of the basal fluorescence, test compounds were added in different concentrations and the fluorescence of the samples was followed at time intervals of 10 min. DCFDA solution in buffer was used as a cell free control to test for interaction of the test compounds with DCFDA. Data were analyzed as fold change of fluorescence compared to basal levels and untreated cells. Significance was calculated using unpaired t-tests; results are given as *: p ≤ 0.05, **: p ≤ 0.01, ***: p ≤ 0.001, ****: p ≤ 0.0001.
(§4) Table S3: Characterization of intracellular ROS production with the DCFDA assay for P -gp negative MES-SA and P-gp positive MES-SA/Dx5 cells. Fold changes in fluorescence are shown after a 2 h with the investigated 8 -hydroxyquinoline ligands. Data S-refer to Figure 7 and allow […]
(§5) concentration range from 6.25µ M to 50µ M. Fold change of fluorescence obtained in the presence of 5 mM NAC is given in brackets.

MES-SA/Dx5 cells [4] = assay: ROS determination with DCFDA, MES-SA/Dx5; format: cell-based, human; settings: 2 h
Method: as §3, §4, §5

[5] = pKa by UV-visible spectrophotometric titrations; format: physicochemical; settings: 0.2 M KCl (ionic strength), T = 25 °C, I = 0.2 M (KCl)
[6] = Table S1, calculated as ligand equivalents, absence of TQ, read-out: IC50 Dx5
[7] = Table S1, calculated as ligand equivalents, presence of 1 µM TQ, read-out: IC50 Dx5_TQ
[8] = Table S1, calculated as ligand equivalents, presence of 1 µM TQ, read-out: IC50 MES-SA_TQ
[9] = Table S1, ligands and in situ preformed complexes, calculated as ligand equivalents, absence of TQ, read-out: IC50 MES-SA
[10] = Homo sapiens, MES-SA/Dx5, Table 2, value outside brackets, read-out: MES-SA/Dx5 (toxicity, Table 2)
[11] = Table 2, value outside brackets
[12] = Homo sapiens, MES-SA, Table 2, value outside brackets, read-out: MES-SA (toxicity, Table 2)
[13] = group named in the cell (NmorpholiniumH+, NpiperidiniumH+, NbenzylamineH2+), read-out: pKa (additional)

For `[Fe+3].[O-]c1c(CN2CCCCC2)ccc2cccnc12.[O-]c1c(CN2CCCCC2)ccc2cccnc12.[O-]c1c(CN2CCCCC2)ccc2cccnc12` [1/3 [Fe(Q-3)3]], the SR (MES-SA/Dx5 cells [1]; absence of TQ) was 2.33, the IC50 (MES-SA/Dx5 cells [1]; [6]) was 0.91 ± 0.22 µM and the IC50 (MES-SA/Dx5 cells [1]; [7]) was 1.45 ± 0.25 µM. The SR_TQ (MES-SA/Dx5 cells [1]) was 1.25, the IC50 (MES-SA cells [2]; [8]) was 1.82 ± 0.71 µM and the IC50 (MES-SA cells [2]; [9]) was 2.12 ± 0.68 µM.

With `[Fe+3].[O-]c1c(CNCc2ccccc2F)cc(Cl)c2cccnc12.[O-]c1c(CNCc2ccccc2F)cc(Cl)c2cccnc12.[O-]c1c(CNCc2ccccc2F)cc(Cl)c2cccnc12` [1/3 [Fe(Q-4)3]] the SR (MES-SA/Dx5 cells [1]; absence of TQ) was 13.14, the IC50 (MES-SA/Dx5 cells [1]; [6]) was 0.22 ± 0.12 µM and the IC50 (MES-SA/Dx5 cells [1]; [7]) was 3.45 ± 0.33 µM. For the same compound, the SR_TQ (MES-SA/Dx5 cells [1]) was 1.03, the IC50 (MES-SA cells [2]; [8]) was 3.54 ± 0.13 µM and the IC50 (MES-SA cells [2]; [9]) was 2.95 ± 1.33 µM.

With `Oc1ccc(Cl)c2cccnc12` [Compound 5-Cl-Q-1] the “Fold change in fluorescence (DCFDA)” value (MES-SA cells [3]; 6.25 µM) was 1.147± 0.32, the “Fold change in fluorescence (DCFDA)” value (MES-SA cells [3]; 6.25 µM, presence of 5 mM NAC (brackets)) was 1.668± 0.35 and the “Fold change in fluorescence (DCFDA)” value (MES-SA cells [3]; 12.5 µM) was 1.119± 0.30. The “Fold change in fluorescence (DCFDA)” value (MES-SA cells [3]; 12.5 µM, presence of 5 mM NAC (brackets)) was 1.418± 0.24, the “Fold change in fluorescence (DCFDA)” value (MES-SA cells [3]; 25 µM) was 1.071± 0.35 and the “Fold change in fluorescence (DCFDA)” value (MES-SA cells [3]; 25 µM, presence of 5 mM NAC (brackets)) was 1.443± 0.22. The “Fold change in fluorescence (DCFDA)” value (MES-SA cells [3]; 50 µM) was 0.891± 0.34, the “Fold change in fluorescence (DCFDA)” value (MES-SA cells [3]; 50 µM, presence of 5 mM NAC (brackets)) was 1.209± 0.23 and the IC50 (MES-SA/Dx5 cells [1]; [10]) was 9.66 ± 2.48 µM. The “SR MES-SA/Dx5 (Table 2)” value (MES-SA/Dx5 cells [1]; Table 2, value in brackets (Tariquidar as in Table 1)) was 1.46, the “SR MES-SA/Dx5 (Table 2)” value (MES-SA/Dx5 cells [1]; [11]) was 1.08 and the “Fold change in fluorescence (DCFDA)” value (MES-SA/Dx5 cells [4]; MES-SA/Dx5, 6.25 µM) was 1.203± 0.32. For the same compound, the “Fold change in fluorescence (DCFDA)” value (MES-SA/Dx5 cells [4]; MES-SA/Dx5, 6.25 µM, presence of 5 mM NAC (brackets)) was 1.279± 0.21, the “Fold change in fluorescence (DCFDA)” value (MES-SA/Dx5 cells [4]; MES-SA/Dx5, 12.5 µM) was 1.291± 0.48 and the “Fold change in fluorescence (DCFDA)” value (MES-SA/Dx5 cells [4]; MES-SA/Dx5, 12.5 µM, presence of 5 mM NAC (brackets)) was 1.187± 0.23. The “Fold change in fluorescence (DCFDA)” value (MES-SA/Dx5 cells [4]; MES-SA/Dx5, 25 µM) was 1.355± 0.46, the “Fold change in fluorescence (DCFDA)” value (MES-SA/Dx5 cells [4]; MES-SA/Dx5, 25 µM, presence of 5 mM NAC (brackets)) was 1.220± 0.22 and the “Fold change in fluorescence (DCFDA)” value (MES-SA/Dx5 cells [4]; MES-SA/Dx5, 50 µM) was 1.206± 0.49. For the same compound, the “Fold change in fluorescence (DCFDA)” value (MES-SA/Dx5 cells [4]; MES-SA/Dx5, 50 µM, presence of 5 mM NAC (brackets)) was 1.152± 0.06 and the IC50 (MES-SA cells [2]; [12]) was 10.4 ± 1.71 µM.

With `CC(=O)N[C@@H](CS)C(=O)O` [NAC, N-acetyl cysteine, reference compound] the “Effect on viability of the cells, alone” value (MES-SA/Dx5 cells [1]; 5 mM, MES-SA/Dx5) was “did not influence the viability” and the “Effect on viability of the cells, alone” value (MES-SA cells [2]; 5 mM, MES-SA) was “did not influence the viability”.

For `Oc1c(CN2CCOCC2)ccc2ccccc12` [NC-2, 2-(morpholino-methyl)naphthalen-1-ol], the IC50 (MES-SA/Dx5 cells [1]; [10]) was 562 ± 36.8 µM, the “SR MES-SA/Dx5 (Table 2)” value (MES-SA/Dx5 cells [1]; [11]) was 0.75 and the pKa [5, 13] was 6.61 ± 0.02. It also gave a pKa ([5]; read-out: pKa (OH)) of 9.21 ± 0.02 and an IC50 (MES-SA cells [2]; [12]) of 422 ± 34.9 µM.

For `Oc1c(CN2CCCCC2)ccc2ccccc12` [NC-3, 2-(piperidin-1-ylmethyl)naphthalen-1-ol], the IC50 (MES-SA/Dx5 cells [1]; [10]) was 163 ± 16.6 µM, the “SR MES-SA/Dx5 (Table 2)” value (MES-SA/Dx5 cells [1]; [11]) was 0.86 and the pKa [5, 13] was 10.12 ± 0.01. It also gave a pKa ([5]; read-out: pKa (OH)) of 6.06 ± 0.01 and an IC50 (MES-SA cells [2]; [12]) of 140 ± 47.9 µM.

With `Oc1c(CNCc2ccccc2F)ccc2ccccc12` [NC-4, 2-((2-fluorobenzylamino)methyl)naphthalen-1-ol] the IC50 (MES-SA/Dx5 cells [1]; [10]) was 31.1 ± 2.17 µM, the “SR MES-SA/Dx5 (Table 2)” value (MES-SA/Dx5 cells [1]; [11]) was 1.44 and the pKa [5, 13] was 9.72 ± 0.02. The pKa ([5]; read-out: pKa (OH)) was 5.5 ± 0.02 and the IC50 (MES-SA cells [2]; [12]) was 44.7 ± 4.52 µM.
